Key:
Type in all cases: physicochemical
[1] = Particle size distribution (laser light scattering, Malvern Mastersizer 2000); conditions: crystal particles of indiplon
Excerpt: As used herein “Particle Size Distribution (P.S.D.)” means the cumulative volume size distribution of equivalent spherical diameters as determined by laser diffraction at 1 bar dispersive pressure in Sympatec Helos equipment.
“Mean particle size distribution, i.e., d (0.5)” correspondingly, means the median of said particle size distribution.
The particle size can be determined by such techniques as, for example, Malvern light scattering, a laser light scattering technique, etc., while herein, used Malvern Mastersizer 2000. It is noted the notation Dx means that X % of the particles have a diameter less than a specified diameter D. The particle sizes of the Indiplon can be obtained by, for example, any milling, grinding, micronizing or other particle size reduction method known in the art to bring the solid state indiplon any of the foregoing desired particle size range.

[2] = Bulk density as per USP method I
[3] = Specific surface area by BET (nitrogen absorption); conditions: crystal particles of indiplon
Excerpt: Specific surface area is defined in units of square meters per gram (m^2/g). It is usually measured by nitrogen absorption analysis. In this analysis, nitrogen is absorbed on the surface of the substance. The amount of the absorbed nitrogen (as measured during the absorption or the subsequent desorption process) is related to the surface area via a formula known as the B. ET. formula.

CC(=O)N(C)c1cccc(-c2ccnc3c(C(=O)c4cccs4)cnn23)c1 [indiplon, N-methyl-N-[3-[3-(thien-2-ylcarbonyl)pyrazolo[1,5-a]pyrimidin-7-yl]phenyl]acetamide]
Particle size Distribution d(0.1) [1]: d(0.1) 4.949 μm | Particle size Distribution d(0.9) [1]: d(0.9) 24.325 μm | Particle size Distribution d(0.5) ([1]; median particle size): d(0.5) 11.641 μm | Bulk Density, after tapping (750) ([2]; after tapping (750), USP method I): After tapping (750) = 0.47 g/ml as per USP | Bulk Density, as such ([2]; as such (untapped)): As such = 0.24 g/ml | Surface area by BET [3]: 1.41 m^2/gm
